Measured values taken from article PMC7238120, “Strong and Selective Inhibitory Effects of the Biflavonoid Selamariscina A against CYP2C8 and CYP2C9 Enzyme Activities in Human Liver Microsomes” (Pharmaceutics, 2020).
Where two headings read alike, the source gives them in different places.

Molecular target: T1, CYP1A2 (Homo sapiens, UniProt P05177)
T1 construct: incubation mixtures containing pooled human liver microsomes (HLMs, XTreme 200, XenoTech); tissue XenoTech XTreme 200; host or cells: pooled human liver microsomes
T1 sequence (P05177 1-516): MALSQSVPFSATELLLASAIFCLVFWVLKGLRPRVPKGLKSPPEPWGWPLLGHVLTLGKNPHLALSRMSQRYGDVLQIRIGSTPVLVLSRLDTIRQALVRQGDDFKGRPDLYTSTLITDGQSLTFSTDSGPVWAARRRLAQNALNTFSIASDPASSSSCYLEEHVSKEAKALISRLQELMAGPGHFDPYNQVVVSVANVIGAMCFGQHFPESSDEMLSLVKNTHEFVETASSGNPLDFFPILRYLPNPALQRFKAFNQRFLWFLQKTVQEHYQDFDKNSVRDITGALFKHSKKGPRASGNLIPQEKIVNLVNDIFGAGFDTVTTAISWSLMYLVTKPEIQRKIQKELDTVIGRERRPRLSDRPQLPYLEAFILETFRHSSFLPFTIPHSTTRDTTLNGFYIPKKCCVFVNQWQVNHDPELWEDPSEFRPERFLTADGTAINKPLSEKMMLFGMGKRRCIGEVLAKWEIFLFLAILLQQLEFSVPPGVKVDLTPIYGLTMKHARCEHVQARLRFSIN
Experiment: Inhibition of CYP1A2-catalyzed phenacetin O-deethylation in pooled human liver microsomes
Format: in vitro ADME
Procedure: The inhibitory potential of the five biflavonoids on the metabolism of nine P450 probe substrates was evaluated using previously developed methods with minor modifications. Biflavonoids were dissolved in methanol. The final concentration of methanol in the incubation mixture was 1.0% (v/v). We used these P450 probe substrates: phenacetin for CYP1A2, coumarin for CYP2A6, bupropion for CYP2B6, amodiaquine for CYP2C8, diclofenac for CYP2C9, omeprazole for CYP2C19, dextromethorphan for CYP2D6, chlorzoxazone for CYP2E1 and midazolam for CYP3A (Table 1). […] The reaction was stopped by adding 50 μL of ice-cold acetonitrile containing 7 nM trimipramine (internal standard, IS). After centrifugation at 18,000 g (5 min, 4 °C), aliquots of supernatants were analyzed by LC-MS/MS (Shimadzu LCMS 8060 system, Shimadzu, Kyoto, Japan). All microsomal incubations were conducted in triplicate. We used HLMs to determine the mechanisms and constants (Ki values) for […] A inhibition of CYP1A2, CYP2B6, CYP2C8, CYP2C9 and CYP3A. […] The substrates were used at concentrations approximately near to their respective Km values. […] The other conditions were the same as in the cytochrome P450 inhibition study. […] Phenomenex, Torrance, CA, USA) and analyzed using a Shimadzu LCMS 8060 triple-quadrupole mass spectrometer coupled with a Nexera X2 ultra high-performance liquid chromatography system (Shimadzu, Kyoto, Japan) equipped with an electrospray ionization interface. The mobile phase consisted of 0.1% formic acid in water (A) and 0.1% formic acid in acetonitrile (B). […] The flow rate was 0.2 mL/min. Electrospray ionization was performed in positive-ion mode at 4000 V or in negative-ion mode at -3500 V. […] Quantitation was conducted in selected reaction monitoring (SRM) modes with the precursor-to-product ion transition for each metabolite (Table 1 and Table 2). We analyzed the data with Shimadzu LabSolution LC-MS software. The IC50 values were calculated by WinNonlin software (Pharsight, Mountain View, CA, USA). The type of inhibition and the apparent kinetic parameters for inhibitory activity (Ki) were determined by following several criteria: visual inspection of Dixon plots, Lineweaver-Burk double reciprocal plots, and secondary plots of Lineweaver-Burk plots versus biflavonoid concentrations, the size of the sum of squares of the residuals, Akaike Information Criteria values, the S.E. and 95% confidence interval of the parameter estimates from the nonlinear regression analysis using the WinNonlin software. The models tested included competitive, competitive partial, noncompetitive, noncompetitive partial, uncompetitive, uncompetitive partial, and mixed-type inhibition.

[1] = substrate phenacetin 100 µM, pooled HLMs, read-out: IC50, P450 1A2

For O=c1cc(-c2ccc(O)c(-c3c(O)cc(O)c4c(=O)cc(-c5ccc(O)cc5)oc34)c2)oc2cc(O)cc(O)c12 [amentoflavone], the IC50 was 4.4 µM.

Work on O=c1cc(-c2ccc(O)cc2)oc2c(-c3c(O)cc(O)c4c(=O)cc(-c5ccc(O)cc5)oc34)c(O)cc(O)c12 [cupressuflavone] yielded an IC50 [1] of 5.9 µM.

CC(C)(O)c1ccccc1CC[C@@H](SCC1(CC(=O)O)CC1)c1cccc(/C=C/c2ccc3ccc(Cl)cc3n2)c1 [montelukast, reference compound] gave an IC50 [1] greater than 50 µM.

In the case of O=c1cc(-c2ccc(O)c(-c3c(O)cc4oc(-c5ccc(O)cc5)cc(=O)c4c3O)c2)oc2cc(O)cc(O)c12 [robustaflavone], the IC50 [1] is reported as 4.5 µM.

In the case of O=C1CC(c2cc(-c3c(O)ccc4c(=O)cc(-c5ccc(O)cc5)oc34)c(O)cc2O)Oc2cc(O)cc(O)c21 (centres unmarked) [selamariscina A], the “Mode of Inhibition, CYP1A2 phenacetin” value (HLMs) is reported as “Competitive”, the Ki (HLMs, average ± standard error, triplicate) is reported as 3.1 ± 0.6 µM and the IC50 [1] is reported as 7.4 µM.

For O=c1cc(-c2ccc(O)c(-c3c(-c4ccc(O)cc4)oc4cc(O)cc(O)c4c3=O)c2)oc2cc(O)cc(O)c12 [taiwaniaflavone], the IC50 [1] was 6.8 µM.
